Reference: patent US20070043070A1, “Weak base salts” (priority 2000, published 2007)
“Also recorded” adds a separate entry of the source. Structures can show the parent of a compound that is named as a salt. Where two headings read alike, the source gives them in different places. Marks after values point to notes of the source that are not given here.

Legend:
[1] = cited from earlier work; for pKa: weak base compounds
[2] = Solubility determination of carbendazim salts in water (HPLC); conditions: for pH: saturated solution in water, Table 13; for PHmax: pH below which solubility plateaus or decreases (solution saturated with respect to salt)
Protocol: These were mixed by end-to-end rotation. Each sample was then filtered through a 0.45 μm PVDF filter. The filterate was collected in two or more fractions, which were analyzed separately by HPLC to ensure that there were no misleading solubility measurements resulting from adsorption onto the filter. Filter adsorption was assumed to be negligible when the concentration of successive fractions agreed within ±5%. The composition of the residual solid was examined to ensure that at least some of the solid phase that was in equilibrium with the solution was indeed the salt.
The Ksp determinations were generally calculated directly from the observed carbendazim concentration once it was established that the residual solid phase contained excess salt. Since […] results in the neutralization of an equivalent amount of counterion to its free base form, the same procedure could be used to calculate Ksp in systems where free acid precipitation occurred prior to saturation of the system with the given salt.
A Beckman Gold HPLC system equipped with a model no. 168 detector at 280 nm was used for all assays. […] The flow rate was controlled at 0.8 ml/min, with carbendazim's retention time at 3.5 min. The injection volume was 20 μL. The evaluation of the assay was conducted by using carbendazim standard solutions at concentrations ranging from 0.1 μg/ml to 100 μg/ml.

[3] = Moisture sorption studies (desiccators at 43% and 81% RH, 25° C., 8 days; PXRD of the solid afterwards); assay type: physicochemical; conditions: for PXRD pattern / solid state form after storage / moisture adsorbed: 8 days; for hygroscopicity in words: 43 and 81% RH; for Hygroscopicity: gain of moisture: hygrostat for 8 days at 43% RH; for moisture adsorbed: 25° C.
Protocol: The PXRD patterns of different salts of carbendazim were determined at ambient temperature and atmosphere using a Philips PM 990/100 diffractometer (Philips, The Netherlands). The x-ray generator (PW3373/00 Cu LFF DK119706) has a copper radiation source which generates a voltage of 50 kV, and a current of 40 mA. Counts were measured using a X'Celerator detector which is based on real time multiple strip (RTMS) technology. Samples were packed into zero background silicon sample holders, and precautions were used to avoid introducing preferred orientation of the crystallites. The samples were subjected to a spinning movement having a rotation time of 4 s. The samples were scanned with the diffraction angle, 2θ, increasing from 3° to 63°, with a step size of 0.0167° and a counting time of 15.24 s. The XRD pattern traces of samples (salts subjected to moisture sorption or stability) were compared with regard to peak position and relative intensity, peak shifting, and the presence or lack of peaks in certain angular regions.
The moisture sorption of the various salts was determined by exposing weighed amounts (˜2 to 3 mg) of salts in a 4 ml glass vial, which was placed in sealed desiccators containing saturated salt solutions. Saturated salt solutions that give defined relative humidities (as a function of temperature) have been reported in various handbooks containing physical and chemical data.
The current study was performed at 25° C. with relative humidity values of 43% (saturated solution of potassium carbonate) and 81% (saturated solution of potassium bromide). The samples were stored in desiccators of known relative humidity for 8 days, following which they were re-weighed to calculate the % weight change. The solid phases were then analyzed using PXRD to ascertain the effect of the moisture content.

[4] = Dehydration kinetics by TGA (Flynn and Wall method); assay type: physicochemical; conditions: TGA heating rates 5-15° C. per minute
Protocol: TGA traces were recorded with a TA Instruments TGA Q-50 (TA Instruments, New Castle, Del.). The sample weight was approximately 2-4 mg, and heating rates of 2-15° C./min under nitrogen gas flow of 60 ml/min were used.
The dehydration kinetics of carbendazim hydrochloride dihydrate was studied by subjecting the crystals to TGA heating rates of 5, 7, 10, 12, and 15° C. per minute. The activation energy (Ea) for the dehydration process was calculated from these TGA data according to the method described by Flynn and Wall (J. H. Flynn and L. A. Wall, J. Research Nat. Bur. Standards A, Phys. Chem. A71, 25 (1967); J. Polym. Sci., Pol. Left. 5, 191 (1967); J. Polym. Sci., Pol. Lett. 4, 323 (1966)). This method involves the analysis of weight loss versus temperature at different heating rates (β) to determine the corresponding absolute temperatures at a constant weight loss (C). Graphs of negative logarithm of heating rates (expressed in ° C./s) (−log β) versus 1/T were plotted (FIG. 8) and the activation energy calculated from the slope of the curves. The activation energy for the dehydration of the hydrochloride salt, calculated from the TGA data, was ˜64 kJ/mol.

[5] = Dissolution studies in 0.1N hydrochloric acid; assay type: physicochemical; conditions: for t60% (time for dissolution of 60% of given amount): pH 1, amount equivalent to 50 mg carbendazim
Protocol: A weighed amount of salt (so as to have 50 mg of carbendazim) was triturated to provide a uniform particle size and was suspended in the dissolution media. The volume of dissolution media was 250 ml, and the stirring rate was maintained at 250 rpm. One ml aliquot samples filtered through a 0.45 μm Millipore filter were withdrawn at 1, 5, 10, 15, 20, 30, 45, and 60 min, respectively. One ml of the dissolution medium was added to the dissolution vessel after each sampling period to maintain constant volume. The samples were then analyzed by HPLC.

[6] = Dissolution studies in Millipore water; assay type: physicochemical; conditions: for completeness of dissolution: 60 min; for t40% (time for dissolution of 40% of given amount): water, amount equivalent to 50 mg carbendazim; for dissolution compared, in words: dissolution profiles

Compound: CN/C(=N\CCSCc1nc[nH]c1C)NC#N [Cimetadine]
- pKa [1]: 6.8

Compound: COC(=O)Nc1nc2ccccc2[nH]1 [Hydrochloride, carbendazim hydrochloride]
- S (aqueous solubility) [2]: 6080 µg/mL
- Sw [2]: 6.080 mg/mL
- pH of saturated sol. [2]: 1.68
- pH ([2]; 25° C.): 1.68
- PXRD pattern / solid state form after storage ([3]; 43% RH): remained unchanged
- hygroscopicity in words [3]: minimally hygroscopic
- PXRD pattern / solid state form after storage ([3]; 81% RH): remained unchanged
- Hygroscopicity: gain of moisture ([3]; hydrochloride): Gain 0.13%
- activation energy for the dehydration [4]: ~15.3 kcal/mol
- t60% (time for dissolution of 60% of given amount) ([5]; hydrochloride): 2 to 3 min
- completeness of dissolution ([6]; Millipore water): did not completely dissolve
- t40% (time for dissolution of 40% of given amount) [6]: ˜5 min

Compound: carbendazim tosylate
- pH of saturated sol. ([2]; Table 14): 1.93
- Ksp ([2]; calculated after correcting for common ion effect): 4.1 × 10^−4 M^2
- PHmax [2]: 1.82
- pH ([2]; 25° C.): 1.93
- S (aqueous solubility) ([2]; water, 25° C.): 4815 µg/mL
- Sw ([2]; water, Table 14): 4.815 mg/mL
- PXRD pattern / solid state form after storage ([3]; 43% RH): remained unchanged
- moisture adsorbed ([3]; 81% RH): approximately 4.3%
- PXRD pattern / solid state form after storage ([3]; 81% RH): remained unchanged
- Hygroscopicity: gain of moisture [3]: Gain 0.27%
- t60% (time for dissolution of 60% of given amount) [5]: 2 to 3 min
- completeness of dissolution ([6]; Millipore water): did not completely dissolve
- t40% (time for dissolution of 40% of given amount) [6]: ˜5 min

Compound: CC(=O)O.CCCCCCCCCCCCCCCCCC1=NCCN1 [Glyodin]
- pKa [1]: ˜7

Compound: O=S(=O)(O)c1ccccc1 [Benzenesulfonic acid]
- Pka1 ([1]; acids used as counter-ions, Table 1): 0.7

Compound: Clc1ccc(COC(Cn2ccnc2)c2ccc(Cl)cc2Cl)c(Cl)c1 (stereo not shown) [Miconazole]
- pKa [1]: 6.7

Compound: CCCCOC(=O)c1ccc(N)cc1 [Butamben]
- pKa [1]: 5.4

Compound: carbendazim hemisulfate monohydrate
- PXRD pattern / solid state form after storage ([3]; 43% RH): remained unchanged
- hygroscopicity in words [3]: minimally hygroscopic
- PXRD pattern / solid state form after storage ([3]; 81% RH): remained unchanged
- Hygroscopicity: gain of moisture [3]: Gain 0.38%
- t60% (time for dissolution of 60% of given amount) [5]: 2 to 3 min
- completeness of dissolution ([6]; Millipore water): did not completely dissolve
- t40% (time for dissolution of 40% of given amount) [6]: ˜3 min

Compound: carbendazim mesylate
- pH of saturated sol. ([2]; Table 14): 0.80
- pH ([2]; 25° C.): 0.8
- S (aqueous solubility) ([2]; water, 25° C.): > 205662 µg/mL
- S (aqueous solubility) ([2]; water, 25° C., listed as mesylate): > 200000 µg/mL
- Sw ([2]; water, Table 14): >205.662* mg/ml
- PXRD pattern / solid state form after storage ([3]; 43% RH): moisture, same
- hygroscopicity in words [3]: highly hygroscopic
- moisture adsorbed ([3]; 81% RH): 10.1%
- PXRD pattern / solid state form after storage ([3]; 81% RH): showed changes in their PXRD patterns
- Hygroscopicity: gain of moisture [3]: Gain 2.04%
- time for dissolving 100% of sample ([5]; 0.1N HCl, pH 1.1): instanteously soluble
- t60% (time for dissolution of 60% of given amount) [5]: 1 min
- time to complete dissolution ([6]; Millipore water): ≤ 30 min
- dissolution compared, in words ([6]; Millipore water): dissolved the fastest; also recorded: best dissolution time
- t40% (time for dissolution of 40% of given amount) [6]: <1 min

Compound: carbendazim phosphate
- PXRD pattern / solid state form after storage ([3]; 43% RH): changed.
- PXRD pattern / solid state form after storage ([3]; 43% RH, listed as phosphate): loses intensity in 28 0 2E reflection
- PXRD pattern / solid state form after storage ([3]; 43% RH, listed as phosphate salt): change form
- hygroscopicity in words [3]: highly hygroscopic
- moisture adsorbed ([3]; 81% RH): 7.5%
- PXRD pattern / solid state form after storage ([3]; 81% RH): showed changes in their PXRD patterns
- Hygroscopicity: gain of moisture [3]: Gain 0.88%
- t60% (time for dissolution of 60% of given amount) [5]: 2 to 3 min
- completeness of dissolution ([6]; Millipore water): did not completely dissolve
- dissolution compared, in words ([6]; Millipore water): better dissolution than the 1:1 physical mixture
- t40% (time for dissolution of 40% of given amount) [6]: ˜5 min

Compound: Cc1cc(NC(=O)NC(=O)c2ccccc2N(C)C)ccc1Oc1ncc(Br)cn1 [BPU NSC 639829]
- pKa [1]: ˜5

Compound: Cc1cc(-c2nc3ccccc3s2)ccc1N [AMPB]
- pKa [1]: 4

Compound: carbendazim besylate
- pH of saturated sol. ([2]; Table 14): 1.76
- PHmax [2]: 1.65
- pH ([2]; 25° C.): 1.76
- S (aqueous solubility) ([2]; water, 25° C.): 6992 µg/mL
- Sw ([2]; water, Table 14): 6.992 mg/mL
- PXRD pattern / solid state form after storage ([3]; 43% RH): remained unchanged
- moisture adsorbed ([3]; 81% RH): approximately 4.3%
- PXRD pattern / solid state form after storage ([3]; 81% RH): remained unchanged
- Hygroscopicity: gain of moisture [3]: Gain 0.18%
- t60% (time for dissolution of 60% of given amount) [5]: 2 to 3 min
- completeness of dissolution ([6]; Millipore water): did not completely dissolve
- t40% (time for dissolution of 40% of given amount) [6]: ˜5 min

Compound: CCN(CC)C(=O)c1cccnc1 [Nikethamide]
- pKa [1]: 3.5

Compound: COC(=O)Nc1nc2ccccc2[nH]1 [Free Base, carbendazim, reference compound]
- S (aqueous solubility) [2]: 6 µg/mL
- Sw [2]: 0.006 mg/mL
- pH of saturated sol. [2]: 5.90
- Hygroscopicity: gain of moisture [3]: Gain 0.36%
- completeness of dissolution ([5]; 0.1N HCl): completely soluble
- t60% (time for dissolution of 60% of given amount) [5]: 5 min
- dissolved fraction of the initial dose ([6]; Millipore water, after 60 min): less than 1%
